Laboratory results published in ChEMBL document CHEMBL5729568, “Ras inhibitors” (2023).

How the values were obtained:
[1] = (§1) Biochemical Assay: A variety of Ras proteins may be inhibited by compounds of the present invention (e.g., K-Ras, N-Ras, H-Ras, and mutants thereof at positions 12, 13 and 61, such as G12C, G12D, G12V, G12S, G13C, G13D, and Q61L, and others described herein). The purpose of this biochemical assay is to measure the ability of test compounds to covalently label nucleotide-loaded K-Ras isoforms. […] The sample is incubated at 25? C. for a time period of up to 24 hours prior to quenching by the addition of 10 uL of 5% Formic Acid. Quenched samples are centrifuged at 15000 rpm for 15 minutes in a benchtop centrifuge before injecting a 10 uL aliquot onto a reverse phase C4 column and eluting into the mass spectrometer with an increasing acetonitrile gradient in the mobile phase. Analysis of raw data may be carried out using Waters MassLynx MS software, with % bound calculated from the deconvoluted protein peaks for labeled and unlabeled K-Ras.
[2] = as §1; remark: listed apart in the source
[3] = as §1; remark: listed apart in the source
[4] = as §1; remark: listed apart in the source
[5] = as §1; remark: listed apart in the source

Compound | IC50 [1] | IC50 [2] | IC50 [3] | IC50 [4] | IC50 [5]
CCn1c(-c2cccnc2C(C)OC)c2c3cc(ccc31)-c1cccc(c1)C[C@H](NC(=O)[C@H](C(C)C)N(C)C(=O)[C@H]1CCN(C(=O)/C=C/C(F)F)C1)C(=O)N1CCC[C@H](N1)C(=O)OCC(C)(C)C2 (stereo not given in full) | in the range around 5.5 µM | in the range around 0.55 µM | in the range around 5.5 µM | in the range around 5.5 µM | in the range around 0.055 µM
C=CC(=O)N1CC(OCC(C(=O)N[C@H]2Cc3cccc(c3)-c3ccc4c(c3)c(c(-c3cccnc3C(C)OC)n4CC)CC(C)(C)COC(=O)[C@@H]3CCCN(N3)C2=O)C(C)C)C1 (stereo not given in full) | – | in the range around 5.5 µM | > 10 µM | – | in the range around 5.5 µM
CCn1c(-c2cccnc2C(C)OC)c2c3cc(ccc31)-c1cccc(c1)C[C@H](NC(=O)[C@H](C(C)C)N(C)C(=O)[C@H]1CCN(C(=O)/C=C/CF)C1)C(=O)N1CCC[C@H](N1)C(=O)OCC(C)(C)C2 (stereo not given in full) | in the range around 5.5 µM | in the range around 0.55 µM | in the range around 5.5 µM | in the range around 5.5 µM | in the range around 0.55 µM
C=CC(=O)N1CC[C@H](C(=O)N(C)[C@H](C(=O)N[C@H]2Cc3cc(O)cc(c3)-c3ccc4c(c3)c(c(-c3cnccc3[C@H](C)OC)n4CC)CC(C)(C)COC(=O)[C@@H]3CCCN(N3)C2=O)C(C)C)C1 | in the range around 0.055 µM | in the range around 0.055 µM | in the range around 0.055 µM | in the range around 0.055 µM | –
CCn1c(-c2cccnc2C(C)OC)c2c3cc(ccc31)-c1cccc(c1)C[C@H](NC(=O)[C@H](C(C)C)N(C)C(=O)[C@H]1CCN(C(=O)C#C[C@@H]3COCCN3C)C1)C(=O)N1CCC[C@H](N1)C(=O)OCC(C)(C)C2 (stereo not given in full) | in the range around 5.5 µM | in the range around 5.5 µM | in the range around 5.5 µM | > 10 µM | in the range around 0.055 µM
C=CC(=O)N1CC(OCC(C(=O)N[C@H]2Cc3cc(cc(C(F)F)c3)-c3ccc4c(c3)c(c(-c3cccnc3C(C)OC)n4CC(F)(F)F)CC(C)(C)COC(=O)[C@@H]3CCCN(N3)C2=O)C(C)C)C1 (stereo not given in full) | > 10 µM | > 10 µM | > 10 µM | > 10 µM | > 10 µM
C=CC(=O)N1CC[C@H](C(=O)N(C)[C@H](C(=O)N[C@H]2Cc3cc(O)cc(c3)-c3ccc4c(c3)c(c(-c3ccncc3CCOC)n4CC)CC(C)(C)COC(=O)[C@@H]3CCCN(N3)C2=O)C(C)C)C1 | in the range around 0.55 µM | in the range around 0.55 µM | in the range around 0.55 µM | – | –
C=CC(=O)N1CC(OCC(C(=O)N[C@H]2Cc3cccc(c3)-c3ccc4c(c3)c(c(-c3cccnc3C(C)OC)n4CC(F)(F)F)CC(C)(C)COC(=O)[C@@H]3CCCN(N3)C2=O)C(C)C)C1 (stereo not given in full) | > 10 µM | > 10 µM | > 10 µM | > 10 µM | in the range around 5.5 µM
C=CC(=O)N1CC[C@H](C(=O)N(C)[C@H](C(=O)N[C@H]2Cc3cc(OC(=O)CCC(=O)O)cc(c3)-c3ccc4c(c3)c(c(-c3ccccc3CCOC)n4CC)CC(C)(C)COC(=O)[C@@H]3CCCN(N3)C2=O)C(C)C)C1 | in the range around 0.55 µM | in the range around 5.5 µM | in the range around 5.5 µM | – | –
C=CC(=O)N1CC[C@H](C(=O)N(C)[C@H](C(=O)N[C@H]2Cc3cc(OC(=O)NCC(=O)O)cc(c3)-c3ccc4c(c3)c(c(-c3ccccc3CCOC)n4CC)CC(C)(C)COC(=O)[C@@H]3CCCN(N3)C2=O)C(C)C)C1 | in the range around 5.5 µM | in the range around 0.55 µM | in the range around 5.5 µM | – | –
C=CC(=O)N1CC[C@H](C(=O)N(C)[C@H](C(=O)N[C@H]2Cc3cc(O)cc(c3)-c3cc(F)c4c(c3)c(c(-c3ccccc3CCOC)n4CC)CC(C)(C)COC(=O)[C@@H]3CCCN(N3)C2=O)C(C)C)C1 | in the range around 5.5 µM | – | – | – | –
CCn1c(-c2cccnc2C(C)OC)c2c3cc(ccc31)-c1cccc(c1)C[C@H](NC(=O)CCOC1CN(C(=O)C#CC(C)(C)N(C)C)C1)C(=O)N1CCC[C@H](N1)C(=O)OCC(C)(C)C2 (stereo not given in full) | > 10 µM | > 10 µM | > 10 µM | > 10 µM | in the range around 0.055 µM
CCn1c(-c2cccnc2C(C)OC)c2c3cc(ccc31)-c1cc(O)cc(c1)C[C@H](NC(=O)[C@H](C(C)C)N(C)C(=O)c1ncc(NC(=O)/C=C/CN(C)C)n1C)C(=O)N1CCC[C@H](N1)C(=O)OCC(C)(C)C2 (stereo not given in full) | in the range around 0.55 µM | < 0.01 µM | in the range around 0.55 µM | in the range around 0.55 µM | < 0.01 µM
CCn1c(-c2cccnc2C(C)OC)c2c3cc(ccc31)-c1cc(cc(C(F)F)c1)C[C@H](NC(=O)C(COC1CN(C(=O)C#CC(C)(C)N(C)C)C1)C(C)C)C(=O)N1CCC[C@H](N1)C(=O)OCC(C)(C)C2 (stereo not given in full) | > 10 µM | > 10 µM | > 10 µM | > 10 µM | in the range around 0.55 µM
C=CC(=O)N1CC[C@H](C(=O)N(C)[C@H](C(=O)N[C@H]2Cc3cc(O)cc(c3)-c3ccc4c(c3)c(c(-c3ccccc3CO)n4CC)CC(C)(C)COC(=O)[C@@H]3CCCN(N3)C2=O)C(C)C)C1 | in the range around 0.55 µM | in the range around 5.5 µM | in the range around 0.55 µM | – | –
C=CC(=O)N1CC[C@]2(CCN(C(=O)N(C)[C@H](C(=O)N[C@@H]3Cc4cc(O)cc(c4)-c4ccc5c(c4)c(c(-c4ccccc4CCOC)n5CC)CC(C)(C)COC(=O)[C@@H]4CCCN(N4)C3=O)C(C)C)C2=O)C1 | in the range around 5.5 µM | in the range around 0.55 µM | in the range around 5.5 µM | – | –
C=CC(=O)N1CC[C@H](C(=O)N(C)[C@H](C(=O)N[C@H]2Cc3cccc(c3)-c3ccc4c(c3)c(c(-c3cc(C5=CCN(C)CC5)cnc3C(C)OC)n4CC)CC(C)(C)COC(=O)[C@@H]3CCCN(N3)C2=O)C(C)C)C1 (stereo not given in full) | > 10 µM | in the range around 5.5 µM | > 10 µM | > 10 µM | in the range around 5.5 µM
C=CC(=O)N1CC(OCC(C(=O)N[C@H]2Cc3cc(cc(C(F)F)c3)-c3ccc4c(c3)c(c(-c3cccnc3C(C)OC)n4CC)CC(C)(C)COC(=O)[C@@H]3CCCN(N3)C2=O)C(C)C)C1 (stereo not given in full) | > 10 µM | > 10 µM | > 10 µM | > 10 µM | > 10 µM
C=CC(=O)Nc1cnc(C(=O)N(C)[C@H](C(=O)N[C@H]2Cc3cccc(c3)-c3ccc4c(c3)c(c(-c3cccnc3C(C)OC)n4CC)CC(C)(C)COC(=O)[C@@H]3CCCN(N3)C2=O)C(C)C)n1C (stereo not given in full) | in the range around 5.5 µM | in the range around 0.055 µM | in the range around 5.5 µM | in the range around 5.5 µM | in the range around 0.055 µM
CCn1c(-c2cccnc2C(C)OC)c2c3cc(ccc31)-c1cccc(c1)C[C@H](NC(=O)[C@H](C(C)C)N(C)C(=O)[C@H]1CCN(C(=O)C#CC3CCO3)C1)C(=O)N1CCC[C@H](N1)C(=O)OCC(C)(C)C2 (stereo not given in full) | in the range around 5.5 µM | in the range around 0.55 µM | in the range around 5.5 µM | in the range around 5.5 µM | < 0.01 µM
CCn1c(-c2ccccc2CCOC)c2c3cc(ccc31)-c1cc(O)cc(c1)C[C@H](NC(=O)[C@H](C(C)C)N(C)C(=O)[C@H]1CCN(C(=O)/C=C/CN(C)C)C1)C(=O)N1CCC[C@H](N1)C(=O)OCC(C)(C)C2 | in the range around 0.55 µM | in the range around 5.5 µM | in the range around 0.55 µM | – | –
C=CC(=O)C1C[C@@H](C(=O)N(C)[C@H](C(=O)N[C@@H]2Cc3cc(O)cc(c3)-c3cnc4c(c3)c(c(-c3ccccc3CCOC)n4CC)CC(C)(C)COC(=O)[C@@H]3CCCN(N3)C2=O)C(C)C)CN1 (stereo not given in full) | in the range around 5.5 µM | – | in the range around 5.5 µM | – | in the range around 5.5 µM
C=CC(=O)N1CC(OCC(C(=O)N[C@H]2Cc3nc(cs3)-c3ccc4c(c3)c(c(-c3cccnc3C(C)OC)n4CC)CC(C)(C)COC(=O)[C@@H]3CCCN(N3)C2=O)C(C)C)C1 (stereo not given in full) | in the range around 5.5 µM | in the range around 5.5 µM | in the range around 5.5 µM | in the range around 5.5 µM | in the range around 0.55 µM
C=CC(=O)N1CC2(CCN([C@H](C(=O)N[C@H]3Cc4cc(O)cc(c4)-c4ccc5c(c4)c(c(-c4ccccc4CCOC)n5CC)CC(C)(C)COC(=O)[C@@H]4CCCN(N4)C3=O)C(C)C)C2=O)C1 | – | – | in the range around 5.5 µM | – | –
CCn1c(-c2cccnc2[C@H](C)OC)c2c3cc(ccc31)-c1cc(O)cc(c1)C[C@H](NC(=O)[C@H](C(C)C)N(C)C(=O)c1nc(NC(=O)/C=C/CN(C)C)cs1)C(=O)N1CCC[C@H](N1)C(=O)OCC(C)(C)C2 | – | in the range around 0.055 µM | in the range around 5.5 µM | in the range around 5.5 µM | –
C=CC(=O)N1CC[C@H](C(=O)N(C)[C@H](C(=O)N[C@H]2Cc3cc(O)cc(c3)-c3ccc4c(c3)c(c(-c3cccnc3[C@H](C)OC)n4CC)CC(C)(C)COC(=O)[C@@H]3CCCN(N3)C2=O)C(C)C)C1 (atropisomer M) | in the range around 5.5 µM | in the range around 5.5 µM | in the range around 5.5 µM | in the range around 5.5 µM | in the range around 0.55 µM
CCn1c(-c2cnccc2COC)c2c3cc(ccc31)-c1cc(O)cc(c1)C[C@H](NC(=O)[C@H](C(C)C)N(C)C(=O)[C@H]1CCN(C(=O)C#CCN(C)C)C1)C(=O)N1CCC[C@H](N1)C(=O)OCC(C)(C)C2 (atropisomer, axis not shown) | – | < 0.01 µM | – | – | < 0.01 µM
